Experimental data taken from patent US5439939A, “Pharmaceutical compositions and methods using isobutyramide for treating betaglobin disorders” (Children's Hospital Medical Center of Northern California, priority 1992, dated 1995).

Experiments:
[1] = Plasma levels of isobutyramide after administration; type: in vivo, baboon and human
Protocol: Adult, male baboons (Papio anubis) were used as experimental animals. Three baboons were rendered anemic by daily phlebotomy for at least about 30 days, and maintained at hematocrit values of about 22% by daily phlebotomy. Each anemic baboon was treated with isobutyramide. One baboon (no. 767) received isobutyramide by oral formulation of 150 mg isobutyramide per ml of distilled sterile water administered through a naso-gastric tube three times per week for three weeks. This baboon received isobutyramide at a dosage of 600 mg per kg of body weight. Another baboon (no. 224) received isobutyramide by parenteral formulation of 150 mg isobutyramide per ml of distilled sterile water administered by intravenous infusion over a 30 minute period one time per day for three weeks. This baboon received isobutyramide at a dosage of 500 mg per kg of body weight. […]
Isobutyramide was administered orally to the baboon (no.767) and parenterally to another baboon (no.224) as described in Example 3. The plasma concentrations of the isobutyramide at various times after a single oral dose to those baboons are shown in FIG. 1 (measured by gas liquid chromatography and expressed in millimoles per liter ("mM")). […]

[2] = standard assays; cited from earlier work
[3] = test system: gammaglobin; assay: Effect of isobutyramide on percentage of gammaglobin to total gamma plus betaglobin in anemic baboons in vivo; set-up: species or system baboon (Papio anubis)
Protocol: (§1) Adult, male baboons (Papio anubis) were used as experimental animals. Three baboons were rendered anemic by daily phlebotomy for at least about 30 days, and maintained at hematocrit values of about 22% by daily phlebotomy. Each anemic baboon was treated with isobutyramide. One baboon (no. 767) received isobutyramide by oral formulation of 150 mg isobutyramide per ml of distilled sterile water administered through a naso-gastric tube three times per week for three weeks. This baboon received isobutyramide at a dosage of 600 mg per kg of body weight. Another baboon (no. 224) received isobutyramide by parenteral formulation of 150 mg isobutyramide per ml of distilled sterile water administered by intravenous infusion over a 30 minute period one time per day for three weeks. This baboon received isobutyramide at a dosage of 500 mg per kg of body weight. Another baboon (no. 207) received isobutyramide by parenteral formulation of 150 mg isobutyramide per ml of distilled sterile water administered by intravenous infusion over a 30 minute period one time per day for three days. This baboon received isobutyramide at a dosage of 500 mg per kg of body weight. The experiment was terminated with this baboon after three days due to an infection. Blood samples were taken throughout the course of treatment. Samples were assayed to determine the percentage of gammaglobin to total gamma-globin and betaglobin (Table 1) and the percentage of total reticulocytes containing gammaglobin, sometimes called "F-retics" (Table 2). The assay to measure the percentage of gammaglobin to total gamma-globin and betaglobin was by the method described in Perrine, S. P., et al., Delay In The Fetal Globin Switch In Infants Of Diabetic Mothers, New Eng. J. Med. vol.312, pp.334-338 (1985). The assay to measure the percentage of total reticulocytes containing gammaglobin was performed by the method described in Rogers, G., et al., Hematologic Response of Patients with Sickle Cell Disease To Treatment with Hydroxyurea, New Eng. J. Med., vol.322, pp.1037-1045 (1990).

[4] = species not given; cited from earlier work
[5] = administered in therapeutically effective amounts; cited from earlier work
[6] = test system: erythroid progenitors from peripheral blood; assay: Effect of isobutyramide in vitro on percentage of gammaglobin to total gamma plus betaglobin in cultured erythroid progenitors; type: cell-based, human; details: 0.2 mM, about 14 days
Protocol: Cultures of erythroid progenitors from peripheral blood of patients having a betaglobin disorder and normal subjects were cultured for about 14 days in presence of 0.2 millimoles per liter ("mM") isobutyramide and the percentages of gammaglobin to total gamma plus betaglobin were assayed substantially according to the methods described in Perrine, S. P. et al., Sodium Butyrate Enhances Fetal Globin Gene Expression in Erythroid Progenitors of Patients With Hb SS and Beta Thalassemia, Blood, vol.74, pp.454-459 (1989). The patients with sickle-cell anemia are identified as "SS" and with beta-thalassemia as "beta-thal." Ages are specified in years.

[7] = test system: reticulocytes containing gammaglobin (F-retics); assay: Effect of isobutyramide on percentage of F-retics to total reticulocytes in anemic baboons in vivo; set-up: species or system baboon (Papio anubis)
Protocol: as §1

CC(C)C(N)=O [isobutyramide, Isobutyramide]
plasma levels ([1]; oral and parenteral administration): sufficient to yield therapeutic effects
half-life ([1]; plasma, after oral or parenteral administration, species not specified (baboons and humans)): 7.6 to 10.5 h
mutagenicity [2]: not mutagenic
production of fetal hemoglobin in vivo ([3]; anemic baboons, Tables 1 and 2): significantly stimulated the production of fetal hemoglobin
Percentage of gammaglobin to total gamma plus betaglobin, treatment (highest achieved) ([3]; baboon 207, 500 mg per kg i.v. infusion over 30 min, once per day for three days, pre-treatment 0): 9%
Percentage of gammaglobin to total gamma plus betaglobin, treatment (highest achieved) ([3]; baboon 224, 500 mg per kg i.v. infusion over 30 min, once per day for three weeks, pre-treatment 2): 11%
Percentage of gammaglobin to total gamma plus betaglobin, treatment (highest achieved) ([3]; baboon 767, 600 mg per kg oral (naso-gastric tube), three times per week for three weeks, pre-treatment 3): 12%
acute intravenous LD 50 [4]: about 3 g per kilogram
toxicity [5]: substantially non-toxic
production of fetal hemoglobin in culture ([6]; Table 3): significantly stimulated the production of fetal hemoglobin in culture
Percentage of gammaglobin to total gamma plus betaglobin, treatment ([6]; SS (sickle-cell anemia), age 10-11, pre-treatment 22): 40%
Percentage of gammaglobin to total gamma plus betaglobin, treatment ([6]; SS (sickle-cell anemia), pre-treatment 17): 96%
Percentage of gammaglobin to total gamma plus betaglobin, treatment ([6]; SS (sickle-cell anemia), pre-treatment 42): 55%
Percentage of gammaglobin to total gamma plus betaglobin, treatment ([6]; SS (sickle-cell anemia), pre-treatment 70): 78%
Percentage of gammaglobin to total gamma plus betaglobin, treatment ([6]; beta-thal, newborn, pre-treatment 40): 50%
Percentage of gammaglobin to total gamma plus betaglobin, treatment ([6]; beta-thal, pre-treatment 65): 98%
Percentage of gammaglobin to total gamma plus betaglobin, treatment ([6]; beta-thal, pre-treatment 70): 64%
Percentage of gammaglobin to total gamma plus betaglobin, treatment ([6]; normal, newborn, pre-treatment 5): 45%
Percentage of gammaglobin to total gamma plus betaglobin, treatment ([6]; normal, newborn, pre-treatment 20): 26%
Percentage of gammaglobin to total gamma plus betaglobin, treatment ([6]; normal, newborn, pre-treatment 69): 72%
Percentage of F-retics to total reticulocytes, treatment ([7]; baboon 207, 500 mg per kg i.v. infusion over 30 min, once per day for three days, pre-treatment 3): 15%
Percentage of F-retics to total reticulocytes, treatment ([7]; baboon 224, 500 mg per kg i.v. infusion over 30 min, once per day for three weeks, pre-treatment 16): 27%
Percentage of F-retics to total reticulocytes, treatment ([7]; baboon 767, 600 mg per kg oral (naso-gastric tube), three times per week for three weeks, pre-treatment 13): 17%
